Experimental data reported in US5759836A, “Osteoarthritis-associated inducable isoform of nitric oxide synthetase” (priority 1995, dated 1998).

Tested on: iNOS
Assay: Radiolabelling of iNOS by acetyl-labelled aspirin in RAW 264.7 cells, SDS-PAGE
Format: biochemical, murine
Conditions: radiolabelled aspirin, 30 minutes
Procedure: Unstimulated and LPS stimulated murine macrophage (RAW 264.7) cells were incubated with radiolabelled aspirin (acetyl group labelled) as described by Lecomte et al. (J. Biol. Chem. 269:13207-13215, 1994). After 30 minutes, the extracts were run on an SDS-PAGE gel and analyzed by phosphoimager. […] The intensity of label (^14 C) is increased, where iNOS synthesis was induced by LPS.
However, the possibility that inhibition of iNOS catalytic activity may be due to acetylation of cofactors/precursors of iNOS has not been ruled out.

## CC(=O)Oc1ccccc1C(=O)O [Aspirin, aspirin]
  acetylation of iNOS: shows acetylation of iNOS
